Assay results as given in patent US9624238B2, “4H-thieno[3,2-C]chromene-based inhibitors of Notum Pectinacetylesterase and methods of their use” (Lexicon Pharmaceuticals, Inc., priority 2011, dated 2017).

Legend:
[1] = target: T1, human notum pectinacetyltransferase (Homo sapiens, UniProt Q6P988); assay: Binding assay (OPTS esterase substrate, fluorimetric); assay type: biochemical
T1 construct: made in house; unpurified conditioned medium used
T1 sequence (Q6P988 20-496): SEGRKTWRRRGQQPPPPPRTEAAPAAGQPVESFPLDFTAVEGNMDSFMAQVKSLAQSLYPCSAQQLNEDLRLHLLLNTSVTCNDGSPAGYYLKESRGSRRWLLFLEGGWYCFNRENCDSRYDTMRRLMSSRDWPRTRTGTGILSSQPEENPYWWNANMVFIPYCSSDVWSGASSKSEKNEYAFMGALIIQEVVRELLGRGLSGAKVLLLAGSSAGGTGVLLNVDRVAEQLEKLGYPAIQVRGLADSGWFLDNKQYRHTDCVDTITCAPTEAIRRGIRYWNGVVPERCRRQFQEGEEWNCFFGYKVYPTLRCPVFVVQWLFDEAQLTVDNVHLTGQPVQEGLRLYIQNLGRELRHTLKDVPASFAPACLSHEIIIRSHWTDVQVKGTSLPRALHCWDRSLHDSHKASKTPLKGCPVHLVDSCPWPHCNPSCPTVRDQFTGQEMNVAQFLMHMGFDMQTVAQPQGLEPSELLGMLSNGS
Experimental: Plasmid containing human notum pectinacetyltransferase in pcDNA3.1(+) vector was transfected into HEK (293 cells and clones were selecting by growing in presence of 400 ug/mL of G418. Condition media from these cells was used for the assay.

[2] = target: T1, human notum pectinacetyltransferase; assay: Reporter assay (CellSensor LEF/TCF-bla FreeStyle 293F cells, Wnt3a and notum conditioned media); assay type: cell-based
Experimental: Plasmid containing human notum pectinacetyltransferase in pcDNA3.1(+) vector was transfected into HEK (293 cells and clones were selecting by growing in presence of 400 ug/mL of G418. The clone containing highest expression of human notum pectinacetyltransferase in the conditioned media was maintained for all future activity assays. L cells overexpressing and secreting Wnt3a into the conditioned media were purchased from ATCC.
The assay protocol was as follows. […] The cell growth medium consisted of DMEM with 10% Dialyzed FBS, 5 μg/ml Blasticidin (Invitrogen, R210-01), 0.1 mM NEAA, 25 mM HEPES and 1×GPS. Cells were then trypsinized by first rinsing with PBS, followed by addition of 5 mL of trypsin and incubation of plates at room temperature for two minutes. A total of 10 mL of assay media (Opti-MEM, plus 0.5% dialyzed FBS, 0.1 mM NEAA, 1 mM sodium pyruvate, 10 mM HEPES, 1×GPS) was then added per 15 cm plate. Cells were counted and suspended at 0.75 million cells per mL. […] After incubation of cells at 37° C. for 3 hours, 10 μL of 30 mM LiCl in assay medium was added per well, followed by incubation at 37° C. for another 3 hours. […] Ten μL of the Wnt3a/notum pentinacetyltransferase mixture was then transferred from Greiner plates to each well of the 384-well plates containing the CellSensor cells.

[3] = given as numeric bound above the legend's highest class
[4] = given as numeric bound above the legend's classes
[5] = given as a numeric bound above the legend's range

| SMILES | IC50 ([1]; class symbols) | EC50 ([2]; class symbols) | other results |
| --- | --- | --- | --- |
| O=C(O)C1CCCN1C(=O)c1cc2c(s1)-c1ccccc1CC2 (stereo not drawn) |  |  | IC50 [1, 3]: > 2000 nM |
| O=C(O)C1CCCN1C(=O)c1cc2c(s1)-c1cc(F)cc(F)c1SC2 (stereo not drawn) | < 2000 nM |  |  |
| O=C(O)C1C(O)CCN1C(=O)c1cc2c(s1)-c1c(F)ccc(F)c1SC2 (stereo not drawn) |  |  | IC50 [1, 3]: > 2000 nM |
| O=C(O)C1CCCN1C(=O)c1cc2c(s1)-c1c(F)ccc(F)c1SC2 (stereo not drawn) | < 1000 nM |  |  |
| CC1(C)Oc2ccccc2-c2sc(C(=O)O)cc21 |  |  | IC50 [1, 3]: > 2000 nM |
| O=C(O)c1cc2c(s1)-c1ccoc1CC2 |  |  | EC50 [2, 4]: > 1000 nM |
| O=C(O)c1cc2c(s1)-c1scnc1CC2 |  |  | EC50 [2, 4]: > 1000 nM |
| CC1(C)Cc2cc(C(=O)O)sc2-c2ccccc21 | < 1000 nM |  |  |
| COc1ccc2c(c1Cl)CCc1cc(C(N)=O)sc1-2 | < 50 nM | < 50 nM |  |
| COCCNC(=O)c1cc2c(s1)-c1ccc(OC)c(Cl)c1CC2 | < 1000 nM | < 50 nM |  |
| COc1ccc2c(c1Cl)CCc1cc(C(=O)NCCN3CCOCC3)sc1-2 | < 1000 nM | < 50 nM |  |
| Cc1ccc(Cl)c2c1-c1sc(C(=O)O)cc1CO2 | < 1000 nM | < 50 nM |  |
| COc1ccc2c(c1Cl)CCc1cc(C(=O)NCCC#N)sc1-2 | < 1000 nM | < 50 nM |  |
| COc1ccc2c(c1Cl)CCc1cc(C(=O)NCCO)sc1-2 | < 1000 nM | < 50 nM |  |
| N#Cc1cccc2c1OCc1cc(C(=O)O)sc1-2 | < 100 nM | < 50 nM |  |
| COc1ccc2c(c1C#N)CCc1cc(C(N)=O)sc1-2 | < 1000 nM | < 50 nM |  |
| COc1ccc2c(c1F)CCc1cc(C(N)=O)sc1-2 | < 100 nM | < 50 nM |  |
| O=C(NCCO)c1cc2c(s1)-c1cccc(F)c1CC2 | < 1000 nM | < 50 nM |  |
| COCCNC(=O)c1cc2c(s1)-c1cccc(F)c1CC2 | < 100 nM | < 50 nM |  |
| O=C(NCc1ncco1)c1cc2c(s1)-c1cccc(F)c1CC2 | < 100 nM | < 50 nM |  |
| NC(=O)c1cc2c(s1)-c1ccc(F)c(F)c1OC2 | < 50 nM | < 50 nM |  |
| O=C(O)c1cc2c(s1)-c1ccc(F)c(F)c1OC2 | < 1000 nM | < 50 nM |  |
| Cc1ccc2c(c1C)CCc1cc(C(=O)O)sc1-2 | < 1000 nM |  |  |
| Cc1ccc2c(c1C)CCc1cc(C(N)=O)sc1-2 | < 1000 nM |  |  |
| CC1(C)Oc2c(F)cc(F)cc2-c2sc(C(=O)O)cc21 | < 1000 nM |  |  |
| NC(=O)c1cc2c(s1)-c1cc(F)cc(F)c1CC2 | < 50 nM | < 50 nM |  |
| O=C(O)c1cc2c(s1)-c1cc(F)cc(F)c1CC2 | < 1000 nM | < 50 nM |  |

| SMILES | IC50 ([1]; class symbols) | EC50 ([2]; class symbols) | other results |
| --- | --- | --- | --- |
| NC(=O)c1cc2c(s1)-c1c(F)ccc(F)c1OC2 | < 50 nM |  |  |
| CC1(C)Cc2cc(C(N)=O)sc2-c2c(F)ccc(F)c21 | < 50 nM |  |  |
| CN(C)c1ccc2c(c1)CCc1cc(C(N)=O)sc1-2 | < 2000 nM |  |  |
| O=C(O)c1cc2c(s1)-c1ccc(Cl)cc1CC2 | < 1000 nM |  |  |
| NC(=O)c1cc2c(s1)-c1ccc(F)cc1CC2 | < 50 nM | < 50 nM |  |
| O=C(O)c1cc2c(s1)-c1ccc(F)cc1CC2 | < 1000 nM | < 50 nM |  |
| Cc1ccc2c(c1)CCc1cc(C(=O)O)sc1-2 | < 1000 nM |  |  |
| NC(=O)c1cc2c(s1)-c1cc(F)c(F)cc1CC2 | < 50 nM | < 50 nM |  |
| O=C(O)c1cc2c(s1)-c1cc(F)c(F)cc1CC2 | < 50 nM | < 50 nM |  |
| Cc1cc2c(cc1C)-c1sc(C(=O)O)cc1CS2 |  |  | IC50 [1, 3]: > 2000 nM |
| Cc1cc2c(cc1C)-c1sc(C(=O)O)cc1CC2 | < 2000 nM |  |  |
| Cc1cc2c(cc1C)-c1sc(C(N)=O)cc1CC2 | < 2000 nM |  |  |
| O=C(O)c1cc2c(s1)-c1c(F)cc(F)cc1OC2 | < 2000 nM |  |  |
| O=C(O)c1cc2c(s1)-c1c(F)cc(F)cc1SC2 | < 1000 nM |  |  |
| CC1(C)Cc2cc(C(=O)O)sc2-c2cc(Br)ccc21 |  |  | IC50 [1, 5]: > 2000 nM |
| NC(=O)c1cc(F)c2c(c1)-c1sc(C(=O)O)cc1CO2 |  |  | IC50 [1, 3]: > 2000 nM |
| NC(=O)c1cc2c(s1)-c1cc(Cl)ccc1OC2 | < 1000 nM |  |  |
| O=C(O)c1cc2c(s1)-c1cc(Cl)ccc1SC2 | < 2000 nM |  |  |
| N#Cc1ccc2c(c1)-c1sc(C(=O)O)cc1CO2 |  |  | IC50 [1, 3]: > 2000 nM |
| N#Cc1cc(F)c2c(c1)-c1sc(C(=O)O)cc1CO2 | < 1000 nM |  |  |
| CC1Oc2ccc(F)cc2-c2sc(C(=O)O)cc21 (stereo not drawn) | < 1000 nM |  |  |
| COc1ccc2c(c1)-c1sc(C(=O)O)cc1CO2 |  |  | IC50 [1, 3]: > 2000 nM |
| Cc1ccc2c(c1)-c1sc(C(=O)O)cc1CS2 |  |  | IC50 [1, 5]: > 2000 nM |
| Cc1ccc2c(c1C)-c1sc(C(=O)O)cc1CC2 | < 2000 nM |  |  |
| Cc1ccc2c(c1C)-c1sc(C(N)=O)cc1CC2 | < 1000 nM |  |  |
| O=C(O)c1cc2c(s1)-c1c(cccc1C(F)(F)F)OC2 | < 1000 nM | < 50 nM |  |
| NC(=O)c1cc2c(s1)-c1c(cccc1C(F)(F)F)OC2 | < 50 nM | < 50 nM |  |

| SMILES | IC50 ([1]; class symbols) | EC50 ([2]; class symbols) | other results |
| --- | --- | --- | --- |
| O=C(O)c1cc2c(s1)-c1c(Br)cccc1CC2 |  |  | IC50 [1, 3]: > 2000 nM |
| N#Cc1cccc2c1-c1sc(C(=O)O)cc1CC2 |  |  | IC50 [1, 3]: > 2000 nM |
| Cc1cccc2c1-c1sc(C(=O)O)cc1CO2 |  |  | IC50 [1, 5]: > 2000 nM |
| COc1ccc2c(c1Cl)CCc1cc(C(=O)NCCc3nnn[nH]3)sc1-2 | < 1000 nM | < 50 nM |  |
| O=C(NCCc1nnn[nH]1)c1cc2c(s1)-c1cccc(F)c1CC2 | < 1000 nM | < 50 nM |  |
| CN(C)CCNC(=O)c1cc2c(s1)-c1ccccc1CC2 |  |  | IC50 [1, 3]: > 2000 nM |
| N#CCCNC(=O)c1cc2c(s1)-c1cccc(F)c1CC2 | < 100 nM | < 100 nM |  |
| O=C(NCCN1CCOCC1)c1cc2c(s1)-c1ccccc1CC2 |  |  | IC50 [1, 3]: > 2000 nM |
| CS(=O)(=O)NC(=O)c1cc2c(s1)-c1ccccc1CC2 |  |  | IC50 [1, 3]: > 2000 nM |
| CCCCNC(=O)c1cc2c(s1)-c1ccccc1CC2 | < 1000 nM |  |  |
| CCNC(=O)c1cc2c(s1)-c1ccccc1CC2 | < 1000 nM |  |  |
| O=C(NS(=O)(=O)O)c1cc2c(s1)-c1ccccc1CC2 | < 2000 nM |  |  |
| COCC1CCCN1C(=O)c1cc2c(s1)-c1cc(F)cc(F)c1SC2 (stereo not drawn) |  |  | IC50 [1, 3]: > 2000 nM |
| CCOC(=O)c1cc2c(s1)-c1cc(F)cc(Cl)c1SC2 |  |  | IC50 [1, 4]: > 2000 nM |
| CCOC(=O)c1cc2c(s1)-c1cccc(C#N)c1CC2 |  |  | IC50 [1, 3]: > 2000 nM |
| CCOC(=O)c1cc2c(s1)-c1ccc(C)c(F)c1CC2 | < 1000 nM |  |  |
| CCOC(=O)c1cc2c(s1)-c1ccc(Cl)cc1CC2 |  |  | IC50 [1, 3]: > 2000 nM |
| CCOC(=O)c1cc2c(s1)-c1ccc(C#N)cc1CC2 |  |  | IC50 [1, 3]: > 2000 nM |
| CCOC(=O)c1cc2c(s1)-c1ccc(C)cc1CC2 |  |  | IC50 [1, 3]: > 2000 nM |
| CCOC(=O)c1cc2c(s1)-c1cc(F)ccc1OC2C (stereo not drawn) |  |  | IC50 [1, 3]: > 2000 nM |
| CCOC(=O)c1cc2c(s1)-c1cc(F)ccc1OC2 |  |  | IC50 [1, 5]: > 2000 nM |
| COC(=O)c1cc2c(s1)-c1ccccc1OC2 | < 1000 nM |  |  |
| COC(=O)c1cc2c(s1)-c1ccccc1CC2 | < 1000 nM | < 50 nM |  |
| CC(C)(C)OC(=O)CC1CCCN1C(=O)c1cc2c(s1)-c1cc(F)cc(F)c1SC2 (stereo not drawn) |  |  | IC50 [1, 3]: > 2000 nM |
| O=C(O)c1cc2c(s1)-c1sccc1CC2 [4,5-dihydrobenzo[1,2-b:6,5-b′]dithiophene-2-carboxylic acid] |  | < 1000 nM |  |
